Measured values taken from patent US20060264388A1, “Method for treating liver cancer by intrahepatic administration of nemorubicin” (priority 2003, published 2006).

Experiments:
[1] = tested on: patients with liver cancer; experiment: Liver toxicity (SGOT, SGPT, Total Bilirubin), worst CTC Grade by cycle, intrahepatic artery nemorubicin q8wk vs q6wk; assay type: in vivo, human
Experimental: The objective of the study was to shorten the time interval between treatment administrations from every 8 weeks (q8wk) of the protocol as reported in WO 00/15203 to every 6 weeks (q6wk). This was done in the attempt of improving the therapeutic potential of nemorubicin treatment through an increase of the dose intensity of the therapy, simultaneously safeguarding patient safety.
Overall, 13 patients were treated with the q8wk schedule (total 25 cycles administered; doses ranged from 200 to 800 mcg/m^2), and 11 patients were treated with the q6wk schedule (total 32 cycles administered; doses were 200 and 600 mcg/m^2).
The NCI-Common Tosicity Criteria grading system (CTC Grade), Version 2.0, was used to report toxicities.

[2] = tested on: liver lesions of breast cancer patients with liver metastases; conditions: 1500 mcg/m^2 i.v., cited from earlier work
[3] = 200 mcg/m^2 q6wk, 12 evaluable cycles
[4] = 200 mcg/m^2 q8wk, 5 evaluable cycles
[5] = 400 mcg/m^2 q8wk, 4 evaluable cycles
[6] = 600 mcg/m^2 q6wk, 17 evaluable cycles
[7] = 600 mcg/m^2 q6wk, 18 evaluable cycles
[8] = 600 mcg/m^2 q8wk, 7 evaluable cycles
[9] = 800 mcg/m^2 q8wk, 5 evaluable cycles
[10] = 800 mcg/m^2 q8wk, 6 evaluable cycles

COc1cccc2c1C(=O)c1c(O)c3c(c(O)c1C2=O)C[C@@](O)(C(=O)CO)C[C@@H]3O[C@H]1C[C@H](N2CCO[C@H](OC)C2)[C@H](O)[C@H](C)O1.Cl [nemorubicin, 3′desamino-3′[2(S)methoxy-4-morpholinyl]doxorubicin-hydrochloride]
SGOT, worst CTC Grade by cycle (increased of at least one Grade versus baseline Grade): All Grades (%) [1, 3]: 9 (75%) (%)
SGOT, worst CTC Grade by cycle (increased of at least one Grade versus baseline Grade): Grade 1-2 (%) [1, 3]: 8 (67%) (%)
SGOT, worst CTC Grade by cycle (increased of at least one Grade versus baseline Grade): Grade 3-4 (%) [1, 3]: 1 (8%) (%)
SGPT, worst CTC Grade by cycle (increased of at least one Grade versus baseline Grade): All Grades (%) [1, 3]: 7 (58%) (%)
SGPT, worst CTC Grade by cycle (increased of at least one Grade versus baseline Grade): Grade 1-2 (%) [1, 3]: 7 (58%) (%)
Total Bilirubin, worst CTC Grade by cycle (increased of at least one Grade versus baseline Grade): All Grades (%) [1, 3]: 10 (83%) (%)
Total Bilirubin, worst CTC Grade by cycle (increased of at least one Grade versus baseline Grade): Grade 1-2 (%) [1, 3]: 10 (83%) (%)
SGOT, worst CTC Grade by cycle (increased of at least one Grade versus baseline Grade): All Grades (%) [1, 4]: 3 (60%) (%)
SGOT, worst CTC Grade by cycle (increased of at least one Grade versus baseline Grade): Grade 1-2 (%) [1, 4]: 3 (60%) (%)
SGPT, worst CTC Grade by cycle (increased of at least one Grade versus baseline Grade): All Grades (%) [1, 4]: 4 (80%) (%)
SGPT, worst CTC Grade by cycle (increased of at least one Grade versus baseline Grade): Grade 1-2 (%) [1, 4]: 4 (80%) (%)
Total Bilirubin, worst CTC Grade by cycle (increased of at least one Grade versus baseline Grade): All Grades (%) [1, 4]: 5 (100%) (%)
Total Bilirubin, worst CTC Grade by cycle (increased of at least one Grade versus baseline Grade): Grade 1-2 (%) [1, 4]: 5 (100%) (%)
SGOT, worst CTC Grade by cycle (increased of at least one Grade versus baseline Grade): All Grades (%) [1, 5]: 4 (100%) (%)
SGOT, worst CTC Grade by cycle (increased of at least one Grade versus baseline Grade): Grade 1-2 (%) [1, 5]: 1 (25%) (%)
SGOT, worst CTC Grade by cycle (increased of at least one Grade versus baseline Grade): Grade 3-4 (%) [1, 5]: 3 (75%) (%)
SGPT, worst CTC Grade by cycle (increased of at least one Grade versus baseline Grade): All Grades (%) [1, 5]: 3 (75%) (%)
SGPT, worst CTC Grade by cycle (increased of at least one Grade versus baseline Grade): Grade 1-2 (%) [1, 5]: 2 (50%) (%)
SGPT, worst CTC Grade by cycle (increased of at least one Grade versus baseline Grade): Grade 3-4 (%) [1, 5]: 1 (25%) (%)
Total Bilirubin, worst CTC Grade by cycle (increased of at least one Grade versus baseline Grade): All Grades (%) [1, 5]: 2 (50%) (%)
Total Bilirubin, worst CTC Grade by cycle (increased of at least one Grade versus baseline Grade): Grade 1-2 (%) [1, 5]: 2 (50%) (%)
SGOT, worst CTC Grade by cycle (increased of at least one Grade versus baseline Grade): All Grades (%) [1, 6]: 16 (94%) (%)
SGOT, worst CTC Grade by cycle (increased of at least one Grade versus baseline Grade): Grade 1-2 (%) [1, 6]: 14 (82%) (%)
SGOT, worst CTC Grade by cycle (increased of at least one Grade versus baseline Grade): Grade 3-4 (%) [1, 6]: 2 (12%) (%)
SGPT, worst CTC Grade by cycle (increased of at least one Grade versus baseline Grade): All Grades (%) [1, 7]: 16 (89%) (%)
SGPT, worst CTC Grade by cycle (increased of at least one Grade versus baseline Grade): Grade 1-2 (%) [1, 7]: 14 (78%) (%)
SGPT, worst CTC Grade by cycle (increased of at least one Grade versus baseline Grade): Grade 3-4 (%) [1, 7]: 2 (11%) (%)
Total Bilirubin, worst CTC Grade by cycle (increased of at least one Grade versus baseline Grade): All Grades (%) [1, 7]: 14 (77%) (%)
Total Bilirubin, worst CTC Grade by cycle (increased of at least one Grade versus baseline Grade): Grade 1-2 (%) [1, 7]: 13 (72%) (%)
Total Bilirubin, worst CTC Grade by cycle (increased of at least one Grade versus baseline Grade): Grade 3-4 (%) [1, 7]: 1 (5%) (%)
SGOT, worst CTC Grade by cycle (increased of at least one Grade versus baseline Grade): All Grades (%) [1, 8]: 4 (57%) (%)
SGOT, worst CTC Grade by cycle (increased of at least one Grade versus baseline Grade): Grade 1-2 (%) [1, 8]: 2 (28%) (%)
SGPT, worst CTC Grade by cycle (increased of at least one Grade versus baseline Grade): All Grades (%) [1, 8]: 4 (57%) (%)
SGPT, worst CTC Grade by cycle (increased of at least one Grade versus baseline Grade): Grade 1-2 (%) [1, 8]: 1 (14%) (%)
Total Bilirubin, worst CTC Grade by cycle (increased of at least one Grade versus baseline Grade): All Grades (%) [1, 8]: 7 (100%) (%)
Total Bilirubin, worst CTC Grade by cycle (increased of at least one Grade versus baseline Grade): Grade 1-2 (%) [1, 8]: 7 (100%) (%)
SGOT, worst CTC Grade by cycle (increased of at least one Grade versus baseline Grade): All Grades (%) [1, 9]: 4 (80%) (%)
SGOT, worst CTC Grade by cycle (increased of at least one Grade versus baseline Grade): Grade 1-2 (%) [1, 9]: 1 (20%) (%)
SGOT, worst CTC Grade by cycle (increased of at least one Grade versus baseline Grade): Grade 3-4 (%) [1, 9]: 3 (60%) (%)
Total Bilirubin, worst CTC Grade by cycle (increased of at least one Grade versus baseline Grade): All Grades (%) [1, 9]: 4 (80%) (%)
Total Bilirubin, worst CTC Grade by cycle (increased of at least one Grade versus baseline Grade): Grade 1-2 (%) [1, 9]: 3 (60%) (%)
Total Bilirubin, worst CTC Grade by cycle (increased of at least one Grade versus baseline Grade): Grade 3-4 (%) [1, 9]: 1 (20%) (%)
SGPT, worst CTC Grade by cycle (increased of at least one Grade versus baseline Grade): All Grades (%) [1, 10]: 5 (83%) (%)
SGPT, worst CTC Grade by cycle (increased of at least one Grade versus baseline Grade): Grade 3-4 (%) [1, 10]: 5 (83%) (%)
frequency of transaminitis, grade 3-4 events ([1]; q6wk versus q8wk schedule): lower in the q6wk than in the q8wk schedule
complete response (CR) in liver lesions ([2]; 6 patients): 1
partial responses (PRs) in liver lesions (2 confirmed and 1 unconfirmed) ([2]; 6 patients): 3
patients with response in liver lesions [2]: 4 out of 6
